Data reported in patent publication US10780099B2, “Injectable neurosteroid formulations containing nanoparticles” (MARINUS PHARMACEUTICALS, INC., priority 2015, dated 2020).
Where two headings read alike, the source gives them in different places.

Legend:
[1] = cited from earlier work

| Compound | half-life ([1]; human plasma) | half-life ([1]; human plasma following oral administration) | Tmax ([1]; in vivo) | solubility (Solubility in water) |
| --- | --- | --- | --- | --- |
| CC(=O)[C@H]1CC[C@H]2[C@@H]3CC[C@H]4C[C@H](O)CC[C@]4(C)[C@H]3CC[C@]12C [Allopregnanolone, 3α,5α-tetrahydroprogesterone] | about 45 minutes | – | – | – |
| CC(=O)[C@H]1CC[C@H]2[C@@H]3CC[C@H]4C[C@](C)(O)CC[C@]4(C)[C@H]3CC[C@]12C [Ganaxolone, 3α-hydroxy, 3β-methyl-5α-pregnan-20-one] | – | approximately 20 hours | short | < 1 µg/mL |
